According to patent US9388216B2, “Methods of treating reproductive cancer” (Medical Research Council, priority 2006, dated 2016):
Non-standard residues stand in square brackets, D forms with d. pGlu = O=C1CC[C@@H](C(=O)O)N1

Key:
[1] = system: GnRH-induced PARP cleavage (caspase 3 activation) in HEK293/rGnRHR cells; assay: Inhibition of GnRH-induced PARP cleavage by chemical inhibitors; conditions: for remaining GnRH I-induced PARP cleavage, mean±S.E.M.: 100 nM GnRH I plus inhibitor; for remaining GnRH I-induced PARP cleavage, mean±S.E.M. / remaining GnRH II-induced PARP cleavage, mean±S.E.M. / effect on GnRH-induced apoptosis / caspase 3 activation (in words): 48 h, complete medium; for remaining GnRH II-induced PARP cleavage, mean±S.E.M.: 100 nM GnRH II plus inhibitor
Experimental: Cells were maintained in Dulbecco's modified Eagles medium (DMEM) (Sigma) supplemented with 10% fetal bovine serum, 2% glutamine and 1% penicillin (10,000 units/ml)/streptomycin (10,000 μg/ml) at 37° C. in a humidified 5% CO2 atmosphere. Cell treatments were performed at 37° C. in serum-containing medium with varying molecule concentrations and time periods, as indicated in the figure legends.
After stimulation of cells growing on 6-well plates, cell monolayers were placed on ice, washed twice in ice-cod Dulbecco's phosphate buffered saline (DPBS), and lysed in a NP-40-based solubilisation buffer (5 mM HEPES, 0.25 M NaCl, 0.5% NP-40, 10% glycerol, 2 mM EDTA pH8.0, 1 mM PMSF, 0.01 mg/ml leupeptin, 1 mM Na2VO4). Solubilised lysates were clarified by centrifugation at 15,000 rpm for 15 min. A 50 μl-aliquot of clarified whole-cell lysate was mixed with an equal volume of 2× Laemmli sample buffer, resolved by SDS-polyacrylamide gel electrophoresis (SDS-PAGE) and transferred to a PVDF membrane (NEN Life Sciences/PerkinElmer Life and Analytical Sciences; Beaconsfield, Bucks, UK). These membranes were blocked in a 4% bovine serum albumin, 50 mM Tris-HCl, pH 7.0, 0.05% Tween-20 and 0.05% NP-40 blocking solution. […] Apoptosis was assessed by incubating the PVDF membranes with a 1:1,000 dilution of anticleaved PARP rabbit polyclonal antibody at 4° C. with gentle shaking overnight. […] An alkaline phosphatase conjugated IgG (Sigma) was employed as a secondary antibody in all cases. Visualization of proteins was performed using enzyme-linked chemifluoresence (Amersham Biosciences Ltd.; St. Giles, Bucks, UK) and quantified using a Typhoon 9400 Phosphorimager.
Then, cells were lysed and a western blot with specific anti-cleaved PARP antibody was carried out as explained before.

HEK293/rGnRHR cells = assay: Cell growth inhibition (viable cell number after 5 days of continuous treatment) in HEK293/rGnRHR cells; type: cell-based, rat; conditions: for antiproliferative/apoptotic potency compared with GnRH I (in words) / fold more potent than GnRH I to induce cell death / inhibit cell growth: rat receptor; for antiproliferative/apoptotic potency compared with GnRH I (in words): 5 days
Experimental: (§1) For the first method, HEK293 cells expressing various GnRH receptor constructs were seeded into 12-well PLL-coated plates at 50,000 cells (in 1 ml)/well and cultured with continuous GnRH exposure for five days, adding fresh peptide every day. Trypan Blue-excluding cells were then counted with a haemocytometer. For the second method, cells were seeded into 96-well plates at 5,000 cells (in 100 μl)/well and treated exactly as described before. 10 μl WST-1 reagent (Roche Diagnostics Ltd.; Lewes, East Sussex, UK) was added directly to each well and, after 3 h at 37° C., absorbance was read at 450 nm (with a reference at 690 nm) against a background control as blank using a microplate ELISA reader.
(§2) Bar graphs and curves were obtained using Prism 3.0 (GraphPad Software, Inc.: San Diego, Calif., USA). IC50 and EC50 values were determined by non-linear regression analysis. Curves were best-fitted to a one-site model. […] Values were normalised as specified in the figure legends.
(§3) Antiproliferation/apoptosis was estimated by determining cell number after five days of continuous exposure to the peptides. In parallel, this response was compared to the classical Gq coupled-PLCβ activation induced by GnRH peptides, as measured by the very well characterized inositol phosphates accumulation protocol. Both outputs were determined in two HEK293 cell lines; one expressing the rat receptor and the other expressing the human receptor. The human cell line was included in the study because this species may be clinically more relevant and the very low receptor expression may better reflect the in vivo tumoural state. In fact, due to poor binding, the precise affinity of the analogues on this cell line could not be determined.

HEK293/hGnRHR cells = assay: Cell growth inhibition (viable cell number after 5 days of continuous treatment) in HEK293/hGnRHR cells; type: cell-based, human; conditions: for antiproliferative/apoptotic potency compared with GnRH I (in words) / fold more potent than GnRH I to induce cell death / inhibit cell growth: human receptor; for antiproliferative/apoptotic potency compared with GnRH I (in words): 5 days
Experimental: as §1, §2, §3

rat GnRH receptor [2] = target: T1, rat GnRH receptor (Rattus norvegicus, UniProt P30969); assay: Accumulation of total inositol phosphates (PLCβ activation) in HEK293/rGnRHR cells; type: cell-based
T1 construct: expressed in transfected cells
T1 sequence (P30969 1-327): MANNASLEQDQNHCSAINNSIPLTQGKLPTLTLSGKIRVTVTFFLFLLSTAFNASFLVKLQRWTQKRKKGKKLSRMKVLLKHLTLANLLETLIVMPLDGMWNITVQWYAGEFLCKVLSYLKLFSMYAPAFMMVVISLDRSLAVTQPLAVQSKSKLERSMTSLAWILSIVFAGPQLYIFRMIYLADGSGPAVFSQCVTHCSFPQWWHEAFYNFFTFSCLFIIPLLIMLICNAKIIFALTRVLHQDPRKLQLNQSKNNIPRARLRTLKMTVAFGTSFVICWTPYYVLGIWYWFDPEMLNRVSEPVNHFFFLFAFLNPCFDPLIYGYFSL
Experimental: HEK293 cells stably expressing the GnRH receptor growing on 12-well PLL-coated plates were pre-labelled with 1 μCi/ml myo-[H3]inositol (Amersham) in inositol-free DMEM (Sigma) for 48 h. On the day of the experiment, cells were washed with assay buffer (140 mM NaCl, 20 mM HEPES, 8 mM glucose, 4 mM KCl, 1 mM MgCl2, 1 mM CaCl2, 1 mg/ml BSA), pre-incubated with 10 mM LiCl (in assay buffer) for 30 min, and stimulated with different concentrations of the peptides (in the same buffer) for 1 h at 37° C. Incubations were terminated by removing the culture medium and lysing the cells in ice cold 10 mM formic acid for 30 min. Inositol phosphates were extracted by chromatography with an anion exchange resin (AG® 1-X8, Bio-Rad) using 1 M ammonium formate and 0.1 M formic acid. Liquid scintillant was added to the final eluate and [3H]inositol phosphates were measured in the β-counter.
as §2

rat GnRH receptor [3] = target: T1, rat GnRH receptor; assay: Competition binding assay with [125I][His5,D-Trp6]GnRH I in HEK293/rGnRHR cells
Experimental: Cell monolayers growing on 12-well PLL-coated plates were incubated in binding buffer (10 mM HEPES, 1% BSA in DMEM) containing […] radioligand (100,000 cpm) and 10-6-10-12 M unlabelled ligand. Equilibrium was reached after incubation for 4 h at 4° C. Cells were then lysed in 0.1 M NaOH and the radioactivity in the extract was measured in a 1261 Wallac MultiGamma counter.
as §2

human GnRH receptor = target: T2, human GnRH receptor (Homo sapiens, UniProt P30968); assay: Accumulation of total inositol phosphates (PLCβ activation) in HEK293/hGnRHR cells; type: cell-based
T2 construct: expressed in transfected cells
T2 sequence (P30968 1-328): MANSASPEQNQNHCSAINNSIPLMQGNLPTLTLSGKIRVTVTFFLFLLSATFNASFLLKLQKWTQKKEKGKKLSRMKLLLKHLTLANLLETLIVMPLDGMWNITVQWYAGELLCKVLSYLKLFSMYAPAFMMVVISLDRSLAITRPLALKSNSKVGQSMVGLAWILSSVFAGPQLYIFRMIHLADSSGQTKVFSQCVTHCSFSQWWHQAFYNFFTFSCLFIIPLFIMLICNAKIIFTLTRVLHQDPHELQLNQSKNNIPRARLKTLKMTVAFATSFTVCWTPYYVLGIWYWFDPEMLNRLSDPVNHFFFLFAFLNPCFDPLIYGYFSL

[4] = HEK293/human GnRH receptor cells

NCCOB(c1ccccc1)c1ccccc1 [2-APB, 2-aminoethyl-diphenilborinate]
PARP cleavage caused by the inhibitor itself (cytotoxicity) ([1]; inhibitor alone): significant PARP cleavage by themselves

COc1cc2ncnc(Nc3cccc(Cl)c3)c2cc1OC [AG1478]
remaining GnRH I-induced PARP cleavage, mean±S.E.M. [1]: 13±10
remaining GnRH II-induced PARP cleavage, mean±S.E.M. [1]: 18±11

COc1ccc2c(c1)c(C1=C(c3c[nH]c4ccccc34)C(=O)NC1=O)cn2CCCN(C)C [Gö 6983]
remaining GnRH I-induced PARP cleavage, mean±S.E.M. [1]: 47±22
remaining GnRH II-induced PARP cleavage, mean±S.E.M. [1]: 35±18
effect on GnRH-induced apoptosis / caspase 3 activation (in words) [1]: clearly more efficient than Ro-31-8220
extent of the effect upon GnRH-stimulated apoptosis ([1]; discussion): ~40%

O=C1c2ccccc2-c2n[nH]c3cccc1c23 [JNKII inhibitor]
remaining GnRH I-induced PARP cleavage, mean±S.E.M. [1]: 84±29
remaining GnRH II-induced PARP cleavage, mean±S.E.M. [1]: 72±22

COc1cccc(-c2cc(=O)c3ccccc3o2)c1N [PD98059]
remaining GnRH I-induced PARP cleavage, mean±S.E.M. [1]: 17±6
remaining GnRH II-induced PARP cleavage, mean±S.E.M. [1]: 14±13

CC(C)(C)n1nc(-c2ccc(Cl)cc2)c2c(N)ncnc21 [PP2]
remaining GnRH I-induced PARP cleavage, mean±S.E.M. [1]: 20±4
remaining GnRH II-induced PARP cleavage, mean±S.E.M. [1]: 18±2

Cn1cc(C2=C(c3cn(CCCSC(=N)N)c4ccccc34)C(=O)NC2=O)c2ccccc21 [Ro-31-8220]
effect on GnRH-induced apoptosis / caspase 3 activation (in words) [1]: no effect

CO[C@H]1[C@@H](OC)C[C@H](C)[C@@H](OC)C2=CC(=O)C=C(NC(=O)/C(C)=C/C=C\[C@H](OC)[C@@H](OC(N)=O)/C(C)=C/[C@@H]1C)C2=O [herbimycin A]
remaining GnRH I-induced PARP cleavage, mean±S.E.M. [1]: 9±1
remaining GnRH II-induced PARP cleavage, mean±S.E.M. [1]: 41±4

PTX: Gi inhibitor from Biomol
effect on GnRH-induced apoptosis / caspase 3 activation (in words) [1]: not having any effect

[His5,Trp7]GnRH I: double mutant GnRH I incorporating His5 and Trp7 of GnRH II ([pGlu]HWSHGWRPG-NH2; ends and bridges not checked; UniProt P01148 24-33, looked up, variant Y5H L7W)
antiproliferative/apoptotic potency compared with GnRH I (in words) (HEK293/rGnRHR cells): improved antiproliferative/apoptotic capacity
antiproliferative/apoptotic potency compared with GnRH I (in words) (HEK293/hGnRHR cells): improved antiproliferative/apoptotic capacity

[His5,Tyr8]GnRH I: double mutant GnRH I incorporating His5 and Tyr8 of GnRH II ([pGlu]HWSHGLYPG-NH2; ends and bridges not checked; UniProt P01148 24-33, looked up, variant Y5H R8Y)
potency to stimulate inositol phosphates accumulation / PLCβ activation compared with GnRH I (in words) (rat GnRH receptor [2]): features intermediate between GnRH I and [Tyr8]GnRH I
antiproliferative/apoptotic potency compared with GnRH I (in words) (HEK293/rGnRHR cells): more potent to inhibit cell growth than GnRH I
affinity compared with GnRH I (in words) (rat GnRH receptor [3]): features intermediate between GnRH I and [Tyr8]GnRH I
potency to stimulate inositol phosphates accumulation / PLCβ activation compared with GnRH I (in words) (human GnRH receptor): features intermediate between GnRH I and [Tyr8]GnRH I
antiproliferative/apoptotic potency compared with GnRH I (in words) (HEK293/hGnRHR cells): more potent to inhibit cell growth than GnRH I

[His5]GnRH I: GnRH I with Tyr5 substituted by His5 of GnRH II (QHWSHGLRPG; Gonadoliberin-1; UniProt P01148 24-33, looked up, variant Y5H)
potency to stimulate inositol phosphates accumulation / PLCβ activation compared with GnRH I (in words) (rat GnRH receptor [2]): better potencies
antiproliferative/apoptotic potency compared with GnRH I (in words) (HEK293/rGnRHR cells): better potencies
affinity compared with GnRH I (in words) (rat GnRH receptor [3]): higher affinity than GnRH I
potency to stimulate inositol phosphates accumulation / PLCβ activation compared with GnRH I (in words) (human GnRH receptor): better potencies
antiproliferative potency (in words) (HEK293/hGnRHR cells; [4]): most potent antiproliferative/apoptotic agent ever described
antiproliferative/apoptotic potency compared with GnRH I (in words) (HEK293/hGnRHR cells): better potencies

[Trp7,Tyr8]GnRH I: double mutant GnRH I incorporating Trp7 and Tyr8 of GnRH II ([pGlu]HWSYGWYPG-NH2; ends and bridges not checked; UniProt P01148 24-33, looked up, variant L7W R8Y)
potency to stimulate inositol phosphates accumulation / PLCβ activation compared with GnRH I (in words) (rat GnRH receptor [2]): almost identical to those of [Tyr8]GnRH I
antiproliferative/apoptotic potency compared with GnRH I (in words) (HEK293/rGnRHR cells): almost identical to those of [Tyr8]GnRH I
affinity compared with GnRH I (in words) (rat GnRH receptor [3]): almost identical to those of [Tyr8]GnRH I
potency to stimulate inositol phosphates accumulation / PLCβ activation compared with GnRH I (in words) (human GnRH receptor): almost identical to those of [Tyr8]GnRH I
antiproliferative/apoptotic potency compared with GnRH I (in words) (HEK293/hGnRHR cells): almost identical to those of [Tyr8]GnRH I

[Trp7]GnRH I: GnRH I with Leu7 replaced by Trp7 of GnRH II (QHWSYGWRPG; Gonadoliberin-1; UniProt P01148 24-33, looked up, variant L7W)
potency to stimulate inositol phosphates accumulation / PLCβ activation compared with GnRH I (in words) (rat GnRH receptor [2]): did not modify the affinity and PLCβ activation capacity
fold more potent than GnRH I to induce cell death / inhibit cell growth (HEK293/rGnRHR cells): 9.1 fold
affinity compared with GnRH I (in words) (rat GnRH receptor [3]): did not modify the affinity and PLCβ activation capacity
potency to stimulate inositol phosphates accumulation / PLCβ activation compared with GnRH I (in words) (human GnRH receptor): did not modify the affinity and PLCβ activation capacity
fold more potent than GnRH I to induce cell death / inhibit cell growth (HEK293/hGnRHR cells): 19.3 fold

[Tyr8]GnRH I: GnRH I with Arg8 substituted by Tyr8 of GnRH II (QHWSYGLYPG; Gonadoliberin-1; UniProt P01148 24-33, looked up, variant R8Y)
fold less potent to stimulate PLCβ compared to GnRH I (rat GnRH receptor [2]): 27.3 fold
fold more potent to suppress cell growth relative to GnRH I (HEK293/rGnRHR cells; range across rat and human receptor cell lines (discussion)): 4-11 fold
fold more potent than GnRH I to induce cell death / inhibit cell growth (HEK293/rGnRHR cells): 4.2 fold
affinity compared with GnRH I (in words) (rat GnRH receptor [3]): very low affinity
fold less potent to stimulate PLCβ relative to GnRH I (human GnRH receptor): 23.7 fold
antiproliferative effect compared with inositol phosphate production, selectivity (in words) (HEK293/hGnRHR cells; [4]): most selective antiproliferative/apoptotic analogue
fold more potent than GnRH I to induce cell death / inhibit cell growth (HEK293/hGnRHR cells): 10.7 fold
